From US20250332300A1 (priority 2024, published 2025)
Positions of bridges follow the written chain, without caps; N, C: chain ends. Non-standard residues stand in square brackets, D forms with d. Triazole bridges read from a SMILES are 1,4-linked. Chains are numbered I, II in the order given. *: point of attachment. DOTA = O=C(O)CN1CCN(CC(=O)O)CCN(CC(=O)*)CCN(CC(=O)O)CC1; Trp(5-OH) = N[C@@H](Cc1c[nH]c2ccc(O)cc12)C(=O)O; NMePhe(4-F) = CN[C@@H](Cc1ccc(F)cc1)C(=O)O; Lys(N3) = [N-]=[N+]=NCCCC[C@H](N)C(=O)O; NMehPhe = CN[C@@H](CCc1ccccc1)C(=O)O; Aad = N[C@@H](CCCC(=O)O)C(=O)O; Gly(cPr) = N[C@H](C(=O)O)C1CC1; NMeK = CN[C@@H](CCCCN)C(=O)O; NMeDap = CN[C@@H](CN)C(=O)O; Pra = C#CC[C@H](N)C(=O)O; Sar = CNCC(=O)O

How the values were obtained:
Type in all cases: binding
human HER2 (23-652) [1] = biological target: T1, human HER2 (23-652) (Homo sapiens, UniProt P04626); test: TR-FRET competition assay for peptide potency, human HER2; parameters: towards human HER2 (23-652) and mouse HER2 (23-653); made in house; host or cells: mammalian cells; conditions: TR-FRET competition with Cy5 labeled peptide probe, 0.1 nM human HER2, 24 h incubation; read-out: huHER2 TR-FRET IC50
Experimental: (§1) Both proteins containing a His-, Avi-tag and biotin in Nterminus, were expressed in mammalian cells and produced in house. […] Standard assay conditions consist of 20 uL total volume in white 384-well plates (Greiner), in 10 mM HEPES buffer containing 150 mM NaCl, 3 mM EDTA, 0.05% Tween20 and 1% final DMSO. […] The ratiometric FRET assay readout is calculated from the ratio of the raw data of the two distinct fluorescence signals measured in time resolved mode (fluorescence 665 nm/fluorescence 620 nm). IC50 values were calculated with the standard Novartis in-house assay data analysis software (Helios software application, Novartis Institutes for BioMedical Research, unpublished) using the methods described in Comput. Methods. Programs. Biomed. 2006, 82, 31-37 (regression algorithms for nonlinear dose-response curve fitting).

human HER2 (23-652) [2] = biological target: T1, human HER2 (23-652); test: Surface plasmon resonance (SPR) for assessment of peptide affinity, human HER2; parameters: towards human HER2 (23-652) and mouse HER2 (23-653); made in house; conditions: SPR, human HER2 extracellular domain, 25° C., 1:1 binding model; read-out: huHER2-SPR-ONC KD
Experimental: Each protein was immobilized either onto a SA sensorchip (Cytiva, BR-1005-31) or CM5 sensorchip (Cytiva, BR-1005-30) to a density of 800-2000 RU. […] For the assay setup the same conditions (flow rate, running buffer, peptide dilution) as described above were used. In a first step the Anti Fc IgG Ab (from Human Antibody Capture Kit, Ref. 29234600, Cytiva) was diluted into acetate pH 5.0 at 25 ug/mL and immobilized at a flow rate of 10 uL/min over 360 s to reach a density around 6000 RU. […] The peptides were tested with an association time of 280 s followed by a dissociation time of 3000 s at a flow rate of 30 uL/min. The regeneration was done using 3 M magnesium chloride regeneration solution as obtained with a contact time of 30 s at a flow rate of 10 uL/min. Curve fitting was performed using the BiacoreTM 8K evaluation software.

mouse HER2 (23-653) = mouse HER2 (23-653) (Mus musculus, UniProt P70424); test: TR-FRET competition assay for peptide potency, mouse HER2; parameters: mouse HER2 (23-653) using a Cy5 labeled peptide as a probe; made in house; host or cells: mammalian cells; conditions: TR-FRET competition with Cy5 labeled peptide probe, 0.1 nM mouse HER2, 24 h incubation; read-out: moHER2 TR-FRET IC50
Experimental: as §1

| IC50 (human HER2 (23-652) [1]) | Kd (human HER2 (23-652) [2]) | IC50 (mouse HER2 (23-653)) | Compound |
| --- | --- | --- | --- |
| 0.3 nM | 0.4 nM | 1 nM | CC(=O)NCCCC[C@H]1C(=O)N[C@@H](Cc2c[nH]c3ccc(O)cc23)C(=O)N[C@@H](Cc2c[nH]c3ccccc23)C(=O)N[C@@H](C2CC2)C(=O)N(C)[C@H](C(=O)N(C)[C@@H](Cc2ccc(F)cc2)C(=O)N[C@@H](CCCCNC(=O)CN2CCN(CC(=O)O)CCN(CC(=O)O)CCN(CC(=O)O)CC2)C(=O)O)CNC(=O)CCC[C@H](NC(C)=O)C(=O)N[C@@H](Cc2ccc(O)cc2)C(=O)N[C@@H](CO)C(=O)N(C)[C@@H](CCc2ccccc2)C(=O)N1C [Example C12] |
| 1 nM | 0.7 nM | 3.8 nM | CCCCCCCCCCCC(CCCCCCCCCCC(=O)O)(C(=O)O)C(=O)NCCOCCOCCOCCOCCOCCOCCOCCOCCOCCOCCOCCOCCOCCOCCOCCOCCOCCOCCOCCOCCOCCOCCOCCOCCC(=O)N[C@H]1CCCC(=O)NC[C@@H](C(=O)N(C)[C@@H](Cc2ccc(F)cc2)C(=O)N[C@@H](CCCCNC(=O)CN2CCN(CC(=O)O)CCN(CC(=O)O)CCN(CC(=O)O)CC2)C(N)=O)N(C)C(=O)[C@H](C2CC2)NC(=O)[C@H](Cc2c[nH]c3ccccc23)NC(=O)[C@H](Cc2c[nH]c3ccc(O)cc23)NC(=O)[C@H](CCCCNC(C)=O)N(C)C(=O)[C@H](CCc2ccccc2)N(C)C(=O)[C@H](CO)NC(=O)[C@H](Cc2ccc(O)cc2)NC1=O (stereo partly drawn) [Example G1] |
| < 0.1 nM | < 0.1 nM | < 0.1 nM | CC(=O)NCCCC[C@H]1C(=O)N[C@@H](Cc2c[nH]c3ccc(O)cc23)C(=O)N[C@@H](Cc2c[nH]c3ccccc23)C(=O)N[C@@H](C2CC2)C(=O)N(C)[C@H](C(=O)N(C)[C@@H](Cc2ccc(F)cc2)C(=O)N[C@@H](CCCCNC(=O)CN2CCN(CC(=O)O)CCN(CC(=O)O)CCN(CC(=O)O)CC2)C(N)=O)CNC(=O)CCC[C@H](NC(=O)CC(=O)O)C(=O)N[C@@H](Cc2ccc(O)cc2)C(=O)N[C@@H](CO)C(=O)N(C)[C@@H](CCc2ccccc2)C(=O)N1C [Example C10] |
| 0.1 nM | 0.1 nM | 0.6 nM | CC(=O)NCCCC[C@H]1C(=O)N[C@@H](Cc2c[nH]c3ccc(O)cc23)C(=O)N[C@@H](Cc2c[nH]c3ccccc23)C(=O)N[C@@H](C2CC2)C(=O)N(C)[C@H](C(=O)N(C)[C@@H](Cc2ccc(F)cc2)C(=O)N[C@@H](CCCCNC(=O)CN2CCN(CC(=O)O)CCN(CC(=O)O)CCN(CC(=O)O)CC2)C(N)=O)CNC(=O)CCC[C@H](N)C(=O)N[C@@H](Cc2ccc(O)cc2)C(=O)N[C@@H](CO)C(=O)N(C)[C@@H](CCc2ccccc2)C(=O)N1C [Example C18] |

| Compound | IC50 (human HER2 (23-652) [1]) | Kd (human HER2 (23-652) [2]) | IC50 (mouse HER2 (23-653)) |
| --- | --- | --- | --- |
| CC(=O)NCCCC[C@H]1C(=O)N[C@@H](Cc2c[nH]c3ccc(O)cc23)C(=O)N[C@H](Cc2c[nH]c3ccccc23)C(=O)N[C@@H](C2CC2)C(=O)N(C)[C@H](C(=O)N(C)[C@@H](Cc2ccc(F)cc2)C(=O)N[C@@H](CCCCNC(=O)CN2CCN(CC(=O)O)CCN(CC(=O)O)CCN(CC(=O)O)CC2)C(N)=O)CNC(=O)CCC[C@H](NC(C)=O)C(=O)N[C@@H](Cc2ccc(O)cc2)C(=O)N[C@@H](CO)C(=O)N(C)[C@@H](CCc2ccccc2)C(=O)N1C [Example C31] | 4840 nM | > 6000 nM | > 10000 nM |
| I: Ac-[Pra][Sar][Sar][Sar][Sar][Sar][Sar][Sar][Sar][Sar][Sar][Sar][Sar][Sar][Sar]K(DOTA)[Sar][Sar][Sar][Sar][Sar][Sar][Sar][Sar][Sar][Sar][Sar][Sar][Sar][Sar][Pra]-NH2 / II: Ac-[Aad]YS[NMehPhe][NMeK](Ac)[Trp(5-OH)]W[Gly(cPr)][NMeDap][NMePhe(4-F)][Lys(N3)]-NH2 / III: Ac-[Aad]YS[NMehPhe][NMeK](Ac)[Trp(5-OH)]W[Gly(cPr)][NMeDap][NMePhe(4-F)][Lys(N3)]-NH2 (triazole I:1-II:11, I:31-III:11; lactam II:1-II:9, III:1-III:9) [Example C4] | 0.1 nM | < 0.1 nM | 0.4 nM |
